Measured values from US20100240074A1 (priority 2007, published 2010).

How the values were obtained:
Assay type in all cases: cell-based, Saccharomyces cerevisiae
[1] = tested on: barrier-free yeast; test: Cycloheximide sensitivity of barrier-free yeast; conditions: cycloheximide 50 ng/ml
[2] = tested on: MATa-type super barrier-free YKO strains; test: Cycloheximide sensitivity of MATa-type super barrier-free YKO strains; conditions: cycloheximide 25 ng/ml; all strains
Experimental: Instead of picking up the entire grown colonies with the 96-pin replicator, the grown colonies were picked up one by one (1 colony/strain) with a toothpick to transfer it onto new MATa selection agar medium, and culture at 30° C. for 7 days. Grown cells were picked up with a disposable 96-pin replicator, suspended in 100 μl of MATa selection liquid medium, and cultured at 25° C. for 2 to 7 days. Subsequently, the grown cells were transferred to a 384-well plate using a dispenser robot SHOTMASTER 3000.

[3] = tested on: parent strain (WT:BY4742); test: Evaluation of sensitivity to lovastatin (area score, ARS), parent strain; conditions: lovastatin concentration 100 μM, FIG. 4
Experimental: (§1) A lovastatin solution was added to a 96-well plate such that the concentration of lovastatin (Sigma-Aldrich, #M2147) was within the range of from 0.39 μM to 100 μM. A parent strain (WT:BY4742, Open Biosystems, #YSC1049) a partner strain for barrier-free YKO (BF:KE458), and a partner strain for super barrier-free YKO (SBF:KE513), which had been subjected to static culture at room temperature for 2 days, were added to the plate such that the final cell number was at a 2000-fold dilution, and then subjected to static culture at 30° C.
(§2) Thereafter, light absorbance thereof at 620 nm was measured over time using a plate reader (SUNRISE, manufactured by Tecan) for 48 hours. Calculation of the cell proliferation inhibiting activity was carried out using the area score method (ARS) described in Japanese Patent Application Laid-Open No. 2006-141298. In ARS, a larger value indicates a greater cell proliferation inhibiting activity.

[4] = tested on: partner strain for barrier-free YKO (BF:KE458); test: Evaluation of sensitivity to lovastatin (area score, ARS), barrier-free partner strain
Experimental: as §1, §2

[5] = tested on: partner strain for super barrier-free YKO (SBF:KE513); test: Evaluation of sensitivity to lovastatin (area score, ARS), super barrier-free partner strain
Experimental: as §1, §2

[6] = tested on: super barrier-free YKO (SBF-YKO) knockout strains; test: Identification of target molecule using super barrier-free YKO (sensitivity ranking by area score); conditions: lovastatin 3.125 μM
Experimental: Identification of a target molecule of lovastatin was conducted using the super barrier-free YKO (SBF-YKO) composed of 4,044 strains prepared as above. The SBF-YKO strains were inoculated into twelve 384-well plates (1 strain/well) in an ordered manner, and subjected to 3 to 7 days of static culture to equalize the number of cells across all strains. The cells were diluted 196-fold, thereby obtaining a cell dilution.
On the other hand, 384-well plates in which 20 μl of YPAD medium containing 3.9 μM lovastatin was added to each well, and 384-well plates in which 20 μl of lovastatin-free YPAD medium was added to each well were prepared. 5 μl of the obtained cell dilution was added to each well. By this operation, the cells were diluted 1000-fold and the compound concentration was adjusted to 3.125 μM.
(§3) These cells were cultured at 25° C., and light absorbance thereof at 650 nm was measured over time using a plate reader (SPECTRAMAX340PC384, Molecular Devices) from about 22 hours to 48 hours after the beginning of the culture. The area scores (ARS) were calculated based on the obtained data, thereby ranking the sensitivity.
In the same manner as in Example 6, identification of a target molecule of rapamycin was conducted using super barrier-free YKO (SBF-YKO). Each of the SBF-YKO strains was subjected to 3 to 7 days of static culture to equalize the number of cells across all strains. […]

[7] = tested on: barrier-free YKO (BF-YKO) knockout strains; test: Identification of target molecule using barrier-free YKO (sensitivity ranking by area score)
Experimental: Using the barrier-free YKO (BF-YKO) composed of 3,011 strains as prepared above, a target molecule of lovastatin was identified. The strains of BF-YKO were inoculated into twelve 384-well plates (1 strain/well) in an ordered manner. The static culture was performed for 3 to 7 days to equalize the number of cells across all strains. The cells were diluted 196-fold, thereby obtaining a cell dilution.
On the other hand, 384-well plates wherein 20 μl of YPAD medium containing 3.9 μM, 7.8 μM or 15.6 μM lovastatin was added to each well, and 384-well plates in which 20 μl of lovastatin-free YPAD medium was added to each well were prepared. 5 μl of the obtained cell dilution was added to each well. By this operation, the cells were diluted 1000-fold and the respective concentrations of the compound were adjusted to 3.125 μM, 6.25 μM and 12.5 μM.
as §3

[8] = tested on: commercially available YKO (Invitrogen, #95401.H2) knockout strains; test: Identification of target molecule using commercially available YKO collection (sensitivity ranking by area score)
Experimental: Identification of a target molecule of lovastatin was conducted in the same manner as in Example 7, except that commercially available YKO (Invitrogen, #95401.H2) composed of 4,847 strains was used instead of BF-YKO.
Identification of a target molecule of rapamycin was conducted in the same manner as in Example 9, except that commercially available YKO (Invitrogen, #95401.H2) composed of 4,847 strains was used instead of SBF-YKO and that the compound concentrations were changed to 10 nM, 12.5 nM and 15 nM.

[9] = tested on: parent strain (WT:BY4741); test: Evaluation of sensitivity to rapamycin (area score, ARS), parent strain; conditions: FIG. 5
Experimental: (§4) In the same manner as in Example 5, to confirm drug sensitivity of the barrier-free YKO (BF-YKO) and super barrier-free YKO (SBF-YKO), changes in sensitivity of the yeasts caused by the proliferation inhibiting effect of rapamycin were examined using a parent strain and a partner strain.
(§5) A rapamycin solution was added to a 96-well plate such that the concentration of rapamycin (Sigma-Aldrich, #R0395) was varied within the range of from 0.2 nM to 50 nM. A parent strain (WT:BY4741, Open Biosystems, #YSC1048), a barrier-free strain (BF:KE457), and a super barrier-free strain (SBF:KE477), which had been subjected to static culture at room temperature for 2 days, were added such that the final cell numbers was at a 1000-fold dilution, and then subjected to static culture at 30° C.
as §2

[10] = tested on: barrier-free strain (BF:KE457); test: Evaluation of sensitivity to rapamycin (area score, ARS), barrier-free strain; conditions: FIG. 5
Experimental: as §4, §5, §2

[11] = tested on: super barrier-free strain (SBF:KE477); test: Evaluation of sensitivity to rapamycin (area score, ARS), super barrier-free strain
Experimental: as §4, §5, §2

[12] = based on lovastatin concentrations at which an area score of about 10 was obtained

## C[C@@H]1C[C@@H]([C@H](O)CC2CC(=O)NC(=O)C2)C(=O)[C@@H](C)C1 [cycloheximide]
[1]
  growth in the presence of cycloheximide: cannot grow
[2]
  growth in the presence of cycloheximide: could not grow

## CC[C@H](C)C(=O)O[C@H]1C[C@@H](C)C=C2C=C[C@H](C)[C@H](CC[C@@H]3C[C@@H](O)CC(=O)O3)[C@H]21 [lovastatin]
[3]
  cell proliferation inhibiting effect: only a slight cell proliferation inhibiting effect
[4]; FIG. 4
  concentration at which maximum inhibiting activity was exhibited: 50 µM
[4]; [12]
  sensitization relative to the WT strain: 8 times
[5]; FIG. 4
  concentration at which maximum inhibiting activity was exhibited: 25 µM
[5]; [12]
  sensitization relative to the WT strain: 16 times
[6]
  sensitivity of BTS1-knockout strain: most sensitive knockout strain
  sensitivity of HMG1 gene knockout strain: high sensitivity
[7]; lovastatin 6.25 μM
  sensitivity of HMG1 gene knockout strain: high sensitivity
[7]; lovastatin 12.5 μM
  sensitivity of HMG1 gene knockout strain: high sensitivity
[8]; lovastatin 3.125 μM
  sensitivity of HMG1 gene knockout strain: not found as a strain exhibiting sensitivity
[8]; lovastatin 3.125 μM and 12.5 μM
  sensitivity of BTS1-knockout strain: not found as a strain exhibiting sensitivity
[8]; lovastatin 12.5 μM
  sensitivity of HMG1 gene knockout strain: not found as a strain exhibiting sensitivity

## CO[C@H]1C[C@@H]2CC[C@@H](C)[C@@](O)(O2)C(=O)C(=O)N2CCCC[C@H]2C(=O)O[C@H]([C@H](C)C[C@@H]2CC[C@@H](O)[C@H](OC)C2)CC(=O)[C@H](C)/C=C(\C)[C@@H](O)[C@@H](OC)C(=O)[C@H](C)C[C@H](C)/C=C/C=C/C=C/1C [rapamycin]
[9]
  concentration at which maximum cell proliferation inhibiting effect was observed: 50 nM
[10]
  concentration at which maximum cell proliferation inhibiting effect was observed: 50 nM
[11]; FIG. 5
  concentration at which maximum effect was exhibited: 6.25 nM
[11]; based on rapamycin concentrations at which an area score of about 10 was obtained
  sensitization relative to the WT strain: 8 times
